Reference: patent US20180111949A1, “NOVEL INDUSTRIAL CRYSTALLIZATION METHOD OF CEFUROXIME SODIUM AND PREPARATION THEREOF” (HAINAN LINGKANG PHARMACEUTICAL CO., LTD, priority 2016, published 2018)
“And” between values parts separate entries of the source, which are not always exact repeats. Identical values can stand only once.

Columns and labels:
[1] = pH, quality research per Chinese Pharmacopoeia 2010 Part 2; type: physicochemical; settings: crystalline powder
Description: (§1) Referring to the quality standard of the raw material in “Part 2 of Chinese Pharmacopoeia 2010 Edition”, the quality research on crystalline powder of Cefuroxime Sodium was conducted in Example 1˜4 and Comparative Example 1, and the results were shown as follows: […]

[2] = Clarity of the solution, quality research per Chinese Pharmacopoeia 2010 Part 2; type: physicochemical; settings: compliance with pharmacopoeia standard
Description: as §1

[3] = Color of the solution, quality research per Chinese Pharmacopoeia 2010 Part 2; type: physicochemical; settings: compliance with pharmacopoeia standard
Description: as §1

[4] = Abnormal toxicity, quality research per Chinese Pharmacopoeia 2010 Part 2; settings: compliance with pharmacopoeia standard
Description: as §1

[5] = Bacterial endotoxin, quality research per Chinese Pharmacopoeia 2010 Part 2; settings: compliance with pharmacopoeia standard
Description: as §1

[6] = Flowability test, angle of repose by funnel method; type: physicochemical; settings: refined Cefuroxime Sodium prepared in Example 1
Description: In order to examine the flowability of the refined Cefuroxime Sodium prepared in Example 1, the angle of repose was measured by a funnel method. Test method: The particles were placed in a fixed funnel, and were […] freely to a horizontal plane to form a disk-shaped stacked body with a bottom radius of r, and the height of the stacked body was measured as H. The results were calculated according to the equation of tan θ=H/r and were shown in the following table: […]

[7] = cited from earlier work

SMILES	pH [1]	Clarity of the solution [2]	Color of the solution [3]	Abnormal toxicity [4]	Bacterial endotoxin [5]	Angle of repose θ, average value ([6]; average of three measurements) [°]	Angle of repose θ ([6]; single measurements, funnel method)	Solubility in chloroform ([7]; chloroform)	Solubility in ethanol ([7]; ethanol)	Solubility in methanol ([7]; methanol)	Solubility in water ([7]; water)
CO/N=C(\C(=O)N[C@@H]1C(=O)N2C(C(=O)[O-])=C(COC(N)=O)CS[C@H]12)c1ccco1.[Na+] [Example 3, Cefuroxime Sodium]	pH = 7.4	Compliance	Compliance	Compliance	Compliance	–	–	–	–	–	–
CO/N=C(\C(=O)N[C@@H]1C(=O)N2C(C(=O)[O-])=C(COC(N)=O)CS[C@H]12)c1ccco1.[Na+] [Example 2, Cefuroxime Sodium]	pH = 7.5	Compliance	Compliance	Compliance	Compliance	–	–	–	–	–	–
CO/N=C(\C(=O)N[C@@H]1C(=O)N2C(C(=O)[O-])=C(COC(N)=O)CS[C@H]12)c1ccco1.[Na+] [Example 1, Cefuroxime Sodium]	pH = 7.3	Compliance	Compliance	Compliance	Compliance	–	–	–	–	–	–
CO/N=C(\C(=O)N[C@@H]1C(=O)N2C(C(=O)[O-])=C(COC(N)=O)CS[C@H]12)c1ccco1.[Na+] [Example 4, Cefuroxime Sodium]	pH = 7.0	Compliance	Compliance	Compliance	Compliance	–	–	–	–	–	–
CO/N=C(\C(=O)N[C@@H]1C(=O)N2C(C(=O)[O-])=C(COC(N)=O)CS[C@H]12)c1ccco1.[Na+] [Cefuroxime Sodium, Sodium (6R, 7R)-7-[2-furyl (methoxyimino)acetylamino]-3-carbamoyloxymethyl-8-oxo-5-thia-1-azabicyclo [4.2.0]oct-2-ene-2-carboxylate]	–	–	–	–	–	26.1	25.9° and 26.1° and 26.2°	insoluble	insoluble	slightly soluble	soluble
CO/N=C(\C(=O)N[C@@H]1C(=O)N2C(C(=O)[O-])=C(COC(N)=O)CS[C@H]12)c1ccco1.[Na+] [Comparative Example 1, Cefuroxime Sodium]	pH = 7.5	Compliance	–	Compliance	Compliance	–	–	–	–	–	–
